Here are results for ten molecules from paper PMC9919311, “Catechol-O-methyltransferase Inhibitors from Calendula officinalis Leaf” (Molecules, 2023).

For one data set, the target named is T1, Recombinant human COMT (Homo sapiens, UniProt P21964).
T1 construct: made in house
T1 sequence (P21964 1-271): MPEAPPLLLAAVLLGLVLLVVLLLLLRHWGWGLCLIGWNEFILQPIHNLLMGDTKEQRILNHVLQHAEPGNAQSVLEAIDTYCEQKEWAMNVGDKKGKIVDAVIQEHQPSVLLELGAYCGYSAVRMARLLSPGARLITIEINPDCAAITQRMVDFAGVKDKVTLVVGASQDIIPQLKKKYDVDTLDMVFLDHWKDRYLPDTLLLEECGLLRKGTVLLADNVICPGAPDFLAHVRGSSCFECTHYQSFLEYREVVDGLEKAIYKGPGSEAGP
Put plainly: COMT inhibitory assay (3-BTD fluorescent substrate). It counts as biochemical.

For data set [1] the following is noted: cited from earlier work.
Setting [2] is: 1 µM COMT, 200 µM SAM, 20 µM 3-BTD, 0–100 µM inhibitor, pH 7.5, 37 °C, read-out: COMT inhibitory activities (IC50).

Like-named read-outs stand apart in the source and are kept apart here.

Regarding `COc1cc(-c2oc3cc(O)cc(O)c3c(=O)c2O[C@@H]2O[C@H](CO)[C@@H](O)[C@H](O)[C@H]2O)ccc1O` [Compound 2, isorhamnetin 3-O-β-glucoside], at Recombinant human COMT (setting [2]), the IC50 is 55 µM.

On to `CC1OC(OC2C(Oc3c(-c4ccc(O)c(O)c4)oc4cc(O)cc(O)c4c3=O)OC(CO)C(O)C2O)C(O)C(O)C1O` (stereo not drawn) [Compound 3, quercetin 3-O-β-neohesperidoside], for which the half-maximal inhibitory concentration (IC50) on Recombinant human COMT stood at 71 µM.

`CC1OC(OC2C(Oc3c(-c4ccc(O)c(O)c4)oc4cc(O)cc(O)c4c3=O)OC(COC(=O)CC(=O)O)C(O)C2O)C(O)C(O)C1O` (stereo not drawn) [Compound 4, quercetin 3-O-(2″-O-α-rhamnosyl-6″-O-malonyl)-β-glucoside]: the IC50 on Recombinant human COMT (setting [2]) came to 65 µM.

Regarding `O=C(O)CC(=O)OC[C@H]1O[C@@H](Oc2c(-c3ccc(O)c(O)c3)oc3cc(O)cc(O)c3c2=O)[C@H](O)[C@@H](O)[C@@H]1O` [Compound 5, quercetin 3-O-(6″-O-malonyl)-β-glucoside], the 50% inhibitory concentration (IC50) at Recombinant human COMT (setting [2]) amounted to 59 µM.

For `COC(=O)CC(=O)OC[C@H]1O[C@@H](Oc2c(-c3ccc(O)c(O)c3)oc3cc(O)cc(O)c3c2=O)[C@H](O)[C@@H](O)[C@@H]1O` [Compound 6], the IC50 on Recombinant human COMT (setting [2]) came to 42 µM.

`COc1cc(-c2oc3cc(O)cc(O)c3c(=O)c2O[C@@H]2O[C@H](COC(=O)CC(=O)O)[C@@H](O)[C@H](O)[C@H]2O)ccc1O` [Compound 7, isorhamnetin 3-O-(6″-O-malonyl)-β-glucoside]: the IC50 on Recombinant human COMT (setting [2]) is more than 100 µM.

As for `O=C(/C=C/c1ccc(O)c(O)c1)O[C@@H]1C[C@](O)(C(=O)O)C[C@@H](O)[C@H]1O` [Compound 8, chlorogenic acid], the IC50 at Recombinant human COMT (setting [2]) amounted to 100 µM.

On to `O=C(C=Cc1ccc(O)c(O)c1)OC1CC(O)(C(=O)O)CC(O)C1OC(=O)C=Cc1ccc(O)c(O)c1` (centres unmarked) [Compound 9, 3,4-dicaffeoylquinic acid], for which the IC50 on Recombinant human COMT (setting [2]) is 21 µM. The “COMT inhibitory activity (in words)” value on Recombinant human COMT (isolated compounds 1–10 compared) is “highest inhibitory activity”.

Regarding `COc1cc(C(=O)O)cc(OC)c1O` [Compound 10, syringic acid], the IC50 on Recombinant human COMT (setting [2]) is more than 100 µM.

Turning to `Cc1ccc(C(=O)c2cc(O)c(O)c([N+](=O)[O-])c2)cc1` [Tolcapone], the hepatotoxicity result in data set [1] is given as “severe hepatotoxicity”.

For orientation: IC50 means the concentration at which inhibition is half-maximal.
